B1: Oatp1b2 (Rattus norvegicus) (protein)
chain: MDHTQQSRKAAEAQPSRSKQTRFCDGFKLFLAALSFSYICKALGGVVMKSSITQIERRFDIPSSISGLIDGGFEIGNLLVIVFVSYFGSKLHRPKLIGIGCFIMGIGSILTALPHFFMGYYKYAKENDIGSLGNSTLTCFINQMTSPTGPSPEIVEKGCEKGLKSHMWIYVLMGNMLRGIGETPIVPLGISYLDDFAKEGHTSMHLGTLHTIAMIGPILGFIMSSVFAKIYVDVGYVDLNSVRITPNDARWVGAWWLSFIVNGLLCITSSIPFFFLPKIPKRSQEERKNSVSLHAPKTDEEKKHMTNLTKQEEQDPSNMTGFLRSLRSILTNEIYVIFLILTLLQVSGFIGSFTYLFKFIEQQFGRTASQANFLLGIITIPTMATAMFLGGYIVKKFKLTSVGIAKFVFFTSSVAYAFQFLYFPLLCENKPFAGLTLTYDGMNPVDSHIDVPLSYCNSDCSCDKNQWEPICGENGVTYISPCLAGCKSFRGDKKPNNTEFYDCSCISNSGNNSAHLGECPRYKCKTNYYFYIILQVTVSFFTAMGSPSLILILMKSVQPELKSLAMGFHSLIIRALGGILAPIYYGAFIDRTCIKWSVTSCGKRGACRLYNSRLFGFSYLGLNLALKTPPLFLYVVLIYFTKRKYKRNDNKTLENGRQFTDEGNPDSVNKNGYYCVPYDEQSNETPL

Tests used:
OATP1B3 [1] = target: T1, OATP1B3 (Homo sapiens, UniProt Q9NPD5)
T1 sequence (Q9NPD5 whole entry): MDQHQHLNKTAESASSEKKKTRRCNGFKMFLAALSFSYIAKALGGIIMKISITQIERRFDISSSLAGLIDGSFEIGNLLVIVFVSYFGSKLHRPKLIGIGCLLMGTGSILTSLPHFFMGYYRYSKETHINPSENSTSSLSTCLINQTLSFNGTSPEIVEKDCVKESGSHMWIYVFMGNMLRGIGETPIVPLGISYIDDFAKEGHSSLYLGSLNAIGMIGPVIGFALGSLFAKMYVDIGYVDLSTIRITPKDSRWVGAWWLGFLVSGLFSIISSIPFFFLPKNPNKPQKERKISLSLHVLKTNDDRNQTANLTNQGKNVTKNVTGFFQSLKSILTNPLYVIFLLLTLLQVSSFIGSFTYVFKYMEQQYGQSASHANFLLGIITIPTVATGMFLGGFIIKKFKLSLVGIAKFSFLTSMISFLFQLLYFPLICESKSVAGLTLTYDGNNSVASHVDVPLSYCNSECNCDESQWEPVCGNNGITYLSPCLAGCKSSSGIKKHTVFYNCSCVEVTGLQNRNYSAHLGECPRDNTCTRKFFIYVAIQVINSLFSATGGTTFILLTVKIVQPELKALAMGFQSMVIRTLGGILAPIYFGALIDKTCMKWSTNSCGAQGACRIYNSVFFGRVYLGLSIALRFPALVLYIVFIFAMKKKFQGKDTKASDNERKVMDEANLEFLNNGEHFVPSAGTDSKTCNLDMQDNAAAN

MDR1 = MDR1 (Homo sapiens, UniProt P08183); details: MDCKII-MDR1 versus MDCKII-Co cells over time; 0.1 μM; p < 0.05
MDR1, sequence (P08183 whole entry): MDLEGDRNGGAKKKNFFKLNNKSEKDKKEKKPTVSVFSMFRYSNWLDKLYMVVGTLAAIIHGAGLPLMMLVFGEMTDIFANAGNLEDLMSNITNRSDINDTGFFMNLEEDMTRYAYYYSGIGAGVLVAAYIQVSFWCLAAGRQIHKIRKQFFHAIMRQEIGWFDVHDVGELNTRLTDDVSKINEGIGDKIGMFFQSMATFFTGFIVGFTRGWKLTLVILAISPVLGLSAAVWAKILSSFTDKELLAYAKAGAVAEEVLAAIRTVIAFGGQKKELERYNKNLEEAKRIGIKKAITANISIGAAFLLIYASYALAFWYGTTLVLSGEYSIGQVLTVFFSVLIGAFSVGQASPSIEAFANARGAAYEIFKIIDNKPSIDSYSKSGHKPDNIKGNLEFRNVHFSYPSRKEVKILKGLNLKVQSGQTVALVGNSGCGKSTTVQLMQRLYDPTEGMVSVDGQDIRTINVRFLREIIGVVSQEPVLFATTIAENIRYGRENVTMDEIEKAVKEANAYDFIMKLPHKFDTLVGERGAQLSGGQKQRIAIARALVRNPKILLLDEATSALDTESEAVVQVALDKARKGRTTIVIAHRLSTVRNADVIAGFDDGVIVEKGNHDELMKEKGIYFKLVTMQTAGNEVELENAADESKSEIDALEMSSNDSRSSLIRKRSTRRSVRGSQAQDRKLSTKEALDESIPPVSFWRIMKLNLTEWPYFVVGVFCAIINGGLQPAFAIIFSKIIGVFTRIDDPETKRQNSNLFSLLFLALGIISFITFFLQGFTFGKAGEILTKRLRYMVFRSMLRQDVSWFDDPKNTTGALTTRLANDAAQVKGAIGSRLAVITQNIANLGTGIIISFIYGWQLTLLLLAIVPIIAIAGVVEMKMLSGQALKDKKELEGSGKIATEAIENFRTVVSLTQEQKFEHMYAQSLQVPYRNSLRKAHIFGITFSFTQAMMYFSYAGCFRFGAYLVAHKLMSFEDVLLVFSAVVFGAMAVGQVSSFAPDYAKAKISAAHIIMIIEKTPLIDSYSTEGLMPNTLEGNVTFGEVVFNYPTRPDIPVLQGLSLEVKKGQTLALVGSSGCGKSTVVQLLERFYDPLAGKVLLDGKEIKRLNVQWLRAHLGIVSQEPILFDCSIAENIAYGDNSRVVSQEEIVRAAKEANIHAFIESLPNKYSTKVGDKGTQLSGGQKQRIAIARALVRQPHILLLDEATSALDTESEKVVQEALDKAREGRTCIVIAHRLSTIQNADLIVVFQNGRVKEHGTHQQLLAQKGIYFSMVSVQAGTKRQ

OATP1B1/MDR1 = details: MDCKII-OATP1B1/MDR1 versus MDCKII-OATP1B1 cells, p < 0.001
OATP1B3/MDR1 = details: MDCKII-OATP1B3/MDR1 versus MDCKII-OATP1B3 cells, p < 0.01
[2] = cited from earlier work
[3] = Mdr1a/1b−/− mice, intravenous administration; cited from earlier work
OATP1B3 [4] = target: T1, OATP1B3; assay: in vitro
[5] = Docetaxel distribution in Slco1b2−/− and wild-type mice; details: for mean plasma clearance ± S.D.: dose/AUC
[6] = substrate: CC(=O)O[C@@]12CO[C@@H]1C[C@H](O)[C@@]1(C)C(=O)[C@H](O)C3=C(C)[C@@H](OC(=O)[C@H](O)[C@@H](NC(=O)OC(C)(C)C)c4ccccc4)C[C@@](O)([C@@H](OC(=O)c4ccccc4)[C@H]21)C3(C)C; assay: cells, lysate or membranes named; details: other: HeLa cells; 0.1-100 μM; Michaelis-Menten fit; 37.0 °C

| Molecule | Vmax (OATP1B3 [1]) | apical docetaxel accumulation (basal-to-apical) (MDR1) | docetaxel transported into the apical compartment (OATP1B1/MDR1; 0.5h up to 3h, 0.1 μM) | intracellular docetaxel (OATP1B1/MDR1; all time points) | docetaxel transported into the apical compartment (OATP1B3/MDR1; 0.5h up to 3h, 0.1 μM) | intracellular docetaxel (OATP1B3/MDR1; all time points) | increase in docetaxel clearance ([2]; CYP3A4*1B and CYP3A5*1A alleles (CYP3A4/5*2 haplotype)) | docetaxel excreted in bile ([2]; humans) | docetaxel excreted in urine ([2]; humans) | difference in drug clearance amongst patients ([2]; patients receiving the same treatment regimens) | increase in odds of developing grade 4 neutropenia ([2]; with a 50% decrease in docetaxel clearance) | AUC of docetaxel in knockout versus wild-type mice [3] | Km (OATP1B3 [4]) | plasma clearance in Slco1b2−/− mice, lower than wild-type mice ([5]; 1 mg/kg intravenous, p < 0.05) | mean plasma clearance ± S.D. ([5]; Slco1b2−/− mice, 1 mg/kg intravenous) | docetaxel liver concentrations ([5]; Slco1b2−/− versus wild-type mice, 30 min after 1 mg/kg intravenous) | mean plasma clearance ± S.D. ([5]; wild-type mice, 1 mg/kg intravenous) | Km [6] | Vmax [6] |
| --- | --- | --- | --- | --- | --- | --- | --- | --- | --- | --- | --- | --- | --- | --- | --- | --- | --- | --- | --- |
| CC(=O)O[C@@]12CO[C@@H]1C[C@H](O)[C@@]1(C)C(=O)[C@H](O)C3=C(C)[C@@H](OC(=O)[C@H](O)[C@@H](NC(=O)OC(C)(C)C)c4ccccc4)C[C@@](O)([C@@H](OC(=O)c4ccccc4)[C@H]21)C3(C)C [docetaxel] | 480 ± 90 pmol/mg/min | significantly higher | significantly higher | significantly lower | significantly higher | significantly lower | 64% | ~ 75% | ~ 5% | up to 10 fold | more than 4 fold | similar | 14 ± 6.5 µM | 83% | 1.22 ± 0.583 mL/min/kg | no significant difference | 473 ± 124 mL/h |  |  |
| B1 |  |  |  |  |  |  |  |  |  |  |  |  |  |  |  |  |  | 20.8 ± 7.4 µM | 1548 ± 186 pmol/mg/min |

From article PMC4394048 (Molecular cancer therapeutics, 2015)
